Assay results taken from patent publication US20230052601A1, “HALO ACTIVE AROMATIC SULFONAMIDE PHARMACEUTICAL COMPOSITIONS FOR INTERNAL USE” (priority 2021, published 2023).

Tested on: P. aeruginosa
Experiment: Flame burn injury with subcutaneous P. aeruginosa infection in mice, survival (Example 3)
Format: in vivo
Conditions: burned mice infected with P. aeruginosa; 1 mg then six doses of 0.5 mg subcutaneously; observed seven days; five treated animals; controls 4 of 11 survived; Fisher exact 0.0337
Procedure: Adult mice (n=16) received a ˜20% flame burn injury, followed by resuscitation with two doses of 0.5 mL of saline and […] of tramadol for analgesia. After 5 minutes, they were infected with P. aeruginosa subcutaneously under the burn wound. 20 minutes post injury, five of the animals received 1 mg of BENZ subcutaneously in 0.25 ml saline, followed by six doses of 0.5 mg of BENZ subcutaneously also in 0.25 ml saline, approximately 8-12 hours apart. The animals were observed several times daily for seven days.

Question: With `O=C(O)c1ccc(S(=O)(=O)NCl)cc1` [BENZ, N-chloro-4-carboxybenzenesulfonamide] as the molecule, how does the “survival of treated animals” value read?
Answer: all five survived
